Laboratory results as given in patent publication US20090221559A1 (priority 2005, published 2009).
Like-named read-outs stand apart in the source and are kept apart here.

Columns and labels:
[1] = test system: HCV replicon RNA replication in Huh-7 luc/neo (Huh-Luc) cells; assay: HCV replicon assay (stable replicon cell reporter assay, luciferase read-out); type: cell-based, HCV type 1b
Procedure, shortened: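 Three-day compound exposure used Huh-Luc cells, which harbour an autonomously replicating genotype 1b NS3-NS5B replicon expressing luciferase and neo^R. Luciferase signal served as the replication read-out, and dose-response curves came from several concentrations per compound.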

[2] = molecular target: T1, HCV NS5B polymerase (His-tagged, C-terminal 21 amino acid deleted NS5B, HC-J4) (Hepatitis C virus genotype 1b, UniProt O92972); assay: NS5b polymerase assay (biochemical RdRp assay, 3H-GTP incorporation, SPA beads); design: species or system HCV genotype 1b
T1 construct: The cDNA encoding NS5B amino acid 1-570 (HC-J4, genotype 1b); His tag (His6, from pET-21b) (C); made in house; host or cells: E. coli BL21 (DE3)
T1 sequence (O92972 2417-3000, looked up, stated change not applied): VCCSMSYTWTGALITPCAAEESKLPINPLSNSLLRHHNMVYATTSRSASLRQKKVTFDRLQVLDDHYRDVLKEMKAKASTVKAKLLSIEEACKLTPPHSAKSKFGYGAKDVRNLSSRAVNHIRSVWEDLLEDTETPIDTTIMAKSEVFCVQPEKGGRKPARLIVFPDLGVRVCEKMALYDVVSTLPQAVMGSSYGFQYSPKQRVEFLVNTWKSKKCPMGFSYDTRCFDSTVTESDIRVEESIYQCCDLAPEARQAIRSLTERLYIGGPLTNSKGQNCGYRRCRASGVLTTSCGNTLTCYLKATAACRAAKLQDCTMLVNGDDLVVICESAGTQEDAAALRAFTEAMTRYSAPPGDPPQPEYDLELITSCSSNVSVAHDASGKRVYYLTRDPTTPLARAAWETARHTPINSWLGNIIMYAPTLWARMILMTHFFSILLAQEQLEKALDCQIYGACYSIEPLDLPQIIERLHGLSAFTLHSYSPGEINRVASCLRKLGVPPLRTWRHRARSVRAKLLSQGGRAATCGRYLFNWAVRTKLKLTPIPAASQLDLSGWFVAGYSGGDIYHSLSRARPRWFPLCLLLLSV
Procedure, shortened: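 3H-GTP incorporation into newly made RNA was captured on SPA beads added in EDTA after 2 h at 25 °C. Compounds in DMSO met preformed enzyme–template complex (200 nM truncated His-NS5B, HC-J4 1b; biotin-oligo(rG13)/poly(rC)) for 15 min at RT, then 600 nM GTP, 5 mM MgCl2, Tris pH 7.5 started polymerization.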

[3] = NS5B Polymerase Assay IC50, 200 nM enzyme, 3H-GTP incorporation, 2 h at 25° C.
[4] = Hepatitis C virus, Huh-7, 72 h, read-out: Replicon Assay EC50, Huh-Luc cells, three days incubation, luciferase activity
[5] = Hepatitis C virus, Huh-7, 72 h, read-out: Replicon Assay EC50 (μM), Huh-Luc cells, incubation of three days, luciferase activity
[6] = NS5B Polymerase Assay IC50 (μM)

melting point | SMILES | EC50 [1, 5] | IC50 [2, 6] | further results
258 °C | CC(=O)N1c2ccccc2NC2=C(C(=O)CC(C)(C)C2)C1/C(Cl)=C/c1ccccc1 (stereo not shown) |  |  | 
258 °C | CC(=O)N1c2c(CNCCCN(C)C)cccc2NC2=C(C(=O)CC(C)(C)C2)C1c1ccc(Cl)cc1Cl (stereo not shown) |  |  | 
226 °C | CC(=O)N1c2c(cccc2C(=O)NCCCN(C)C)NC2=C(C(=O)CC(C)(C)C2)C1c1ccc(Cl)cc1Cl (stereo not shown) |  |  | 
> 260 °C | CC(=O)N1c2ccc(CN(C)C)cc2NC2=C(C(=O)CC(C)(C)C2)C1c1ccc(Cl)cc1Cl (stereo not shown) |  |  | 
> 250 °C | CC(=O)N1c2ccc(C(=O)O)cc2NC2=C(C(=O)CC(C)(C)C2)C1c1ccc(Cl)cc1Cl (stereo not shown) |  |  | 
200 °C | CC1(C)CC(=O)C2=C(C1)Nc1ccccc1N(C(=O)CC(=O)O)C2c1ccc(Cl)cc1Cl (stereo not shown) |  |  | 
242 °C | CC(=O)N1c2ccc(CCCN)cc2NC2=C(C(=O)CC(C)(C)C2)C1c1ccc(Cl)cc1Cl (stereo not shown) |  |  | 
> 250 °C | COC(=O)c1ccc2c(c1)NC1=C(C(=O)CC(C)(C)C1)C(c1ccc(Cl)cc1Cl)N2C(C)=O (stereo not shown) |  |  | 
> 250 °C | COC(=O)c1ccc2c(c1)N(C(C)=O)C(c1ccc(Cl)cc1Cl)C1=C(CC(C)(C)CC1=O)N2 (stereo not shown) |  |  | 
> 260 °C | CC(=O)N1c2c(cccc2C(=O)O)NC2=C(C(=O)CC(C)(C)C2)C1c1ccc(Cl)cc1Cl (stereo not shown) |  |  | 
200 °C | CC(=O)N1c2c(CO)cccc2NC2=C(C(=O)CC(C)(C)C2)C1c1ccc(Cl)cc1Cl (stereo not shown) |  |  | 
236 °C | CC(=O)N1c2c(CNCCN3CCOCC3)cccc2NC2=C(C(=O)CC(C)(C)C2)C1c1ccc(Cl)cc1Cl (stereo not shown) |  |  | 
> 260 °C | CC(=O)N1c2c(cccc2C(=O)NCCc2ccncc2)NC2=C(C(=O)CC(C)(C)C2)C1c1ccc(Cl)cc1Cl (stereo not shown) |  |  | 
212 °C | CC(=O)N1c2c(CNCCc3ccncc3)cccc2NC2=C(C(=O)CC(C)(C)C2)C1c1ccc(Cl)cc1Cl (stereo not shown) |  |  | 
> 260 °C | CCCN(C)Cc1cccc2c1N(C(C)=O)C(c1ccc(Cl)cc1Cl)C1=C(CC(C)(C)CC1=O)N2 (stereo not shown) |  |  | 
> 260 °C | CC(=O)N1c2ccc(CN)cc2NC2=C(C(=O)CC(C)(C)C2)C1c1ccc(Cl)cc1Cl (stereo not shown) |  |  | 
> 260 °C | CC(=O)N1c2c(CN3CCOCC3)cccc2NC2=C(C(=O)CC(C)(C)C2)C1c1ccc(Cl)cc1Cl (stereo not shown) |  |  | 
200 °C | C=CCCC(=O)N1c2ccccc2NC2=C(C(=O)CC(C)(C)C2)C1c1ccc(Cl)cc1Cl (stereo not shown) |  |  | 
> 260 °C | CNCc1ccc2c(c1)NC1=C(C(=O)CC(C)(C)C1)C(c1ccc(Cl)cc1Cl)N2C(C)=O (stereo not shown) |  |  | 
> 250 °C | CC1(C)CC(=O)C2=C(C1)Nc1cc(C(=O)O)ccc1NC2c1ccc(Cl)cc1Cl (stereo not shown) |  |  | 
160 °C | CC1(C)CC(=O)C2=C(C1)Nc1cc(CO)ccc1NC2c1ccc(Cl)cc1Cl (stereo not shown) |  |  | 
168 °C | CC1(C)CC(=O)C2=C(C1)Nc1ccc(CO)cc1NC2c1ccc(Cl)cc1Cl (stereo not shown) |  |  | 
208 °C | CCOC(=O)c1cccc2c1NC(c1ccc(Cl)cc1Cl)C1=C(CC(C)(C)CC1=O)N2 (stereo not shown) |  |  | 
> 260 °C | CC1(C)CC(=O)C2=C(C1)Nc1cccc(CO)c1NC2c1ccc(Cl)cc1Cl (stereo not shown) |  |  | 

melting point | SMILES | EC50 [1, 5] | IC50 [2, 6] | further results
 | CCn1c2ccccc2c2cc([C@@H]3Nc4ccccc4NC4=C3C(=O)C[C@@H](c3ccccc3)C4)ccc21 [compound 484] | 6.65 µM | > 42.7 µM | 
 | COc1ccc([C@@H]2CC(=O)C3=C(C2)Nc2ccccc2N[C@H]3c2cc3c(cc2[N+](=O)[O-])OCO3)cc1 [compound 485] | 3.39 µM | > 42.7 µM | 
 | COc1ccc([C@@H]2CC(=O)C3=C(C2)Nc2ccccc2N[C@H]3c2cc3c(cc2Br)OCO3)cc1 [compound 486] | 3.31 µM | > 42.7 µM | 
 | COc1ccc([C@@H]2CC(=O)C3=C(C2)Nc2ccccc2N[C@H]3c2cc3c(cc2[N+](=O)[O-])OCO3)cc1OC [compound 487] | 3.15 µM | > 42.7 µM | 
 | O=C1C[C@@H](c2ccccc2)CC2=C1[C@H](c1coc3ccccc3c1=O)Nc1ccccc1N2 [compound 488] | 17.8 µM | > 42.7 µM | 
 | COc1ccc([C@@H]2CC(=O)C3=C(C2)Nc2ccccc2N[C@H]3c2c[nH]c3ccccc23)cc1 [compound 489] | 5.91 µM | > 42.7 µM | 
 | COc1ccc([C@@H]2CC(=O)C3=C(C2)Nc2ccccc2N[C@H]3c2ccc(C)s2)cc1 [compound 490] | 24.9 µM | > 42.7 µM | 
 | O=C1C[C@@H](c2ccccc2)CC2=C1[C@H](c1ccc3c(c1)OCO3)Nc1ccc(C(=O)c3ccccc3)cc1N2 [compound 491] | 12.1 µM | > 42.7 µM | 
 | O=C1C[C@@H](c2ccc3c(c2)OCO3)CC2=C1[C@H](c1ccc3c(c1)OCO3)Nc1ccccc1N2 [compound 492] | 11 µM | > 42.7 µM | 
 | O=C1C[C@@H](c2ccc3c(c2)OCO3)CC2=C1[C@H](c1cc3c(cc1Br)OCO3)Nc1ccccc1N2 [compound 493] | 1.3 µM | > 42.7 µM | 
 | COc1ccc([C@@H]2CC(=O)C3=C(C2)Nc2ccccc2N[C@H]3c2ccc3c(c2)OCO3)cc1OC [compound 494] | 21.7 µM | > 42.7 µM | 
 | COc1ccc([C@@H]2CC(=O)C3=C(C2)Nc2ccccc2N[C@H]3c2coc3ccccc3c2=O)cc1OC [compound 495] | 3.69 µM | > 42.7 µM | 
 | COc1ccc([C@@H]2CC(=O)C3=C(C2)Nc2ccccc2N[C@H]3c2cccc3ccccc23)cc1OC [compound 496] | 22.9 µM | > 42.7 µM | 
 | CC1(C)CC(=O)C2=C(C1)Nc1ccccc1NC2c1cccnc1 (stereo not shown) [compound 499] | > 32 µM | > 42.7 µM | 
 | CCn1c2ccccc2c2cc(C3Nc4ccccc4NC4=C3C(=O)CC(C)(C)C4)ccc21 (stereo not shown) [compound 501] | 19.8 µM | > 42.7 µM | 
 | CC1(C)CC(=O)C2=C(C1)Nc1ccccc1NC2c1coc2c(Cl)cc(Cl)cc2c1=O (stereo not shown) [compound 502] | 13.2 µM | > 42.7 µM | 
 | CCn1c2ccccc2c2cc(C3Nc4cc(C)c(C)cc4NC4=C3C(=O)CC(C)(C)C4)ccc21 (stereo not shown) [compound 504] | 17.1 µM | 39.1 µM | 
 | CC1(C)CC(=O)C2=C(C1)Nc1ccccc1NC2c1cc2c(cc1[N+](=O)[O-])OCO2 (stereo not shown) [compound 505] | 13.5 µM | > 42.7 µM | 
 | CN1c2ccccc2NC2=C(C(=O)CC(C)(C)C2)C1c1ccc(Cl)cc1Cl (stereo not shown) [compound 507, 11-(2,4-Dichlorophenyl)-2,3,4,5,10,11-hexahydro-3,3,10-trimethyl-1H-dibenzo[b,e][1,4]diazepin-1-one] | 4.63 µM | > 42.7 µM | 
 | CCN1c2ccccc2NC2=C(C(=O)CC(C)(C)C2)C1c1ccc(Cl)cc1Cl (stereo not shown) [compound 508, 11-(2,4-dichlorophenyl)-10-ethyl-2,3,4,5,10,11-hexahydro-3,3-dimethyl1H-dibenzo[b,e][1,4]diazepin-1-one] | 1.37 µM | > 42.7 µM | 
 | CCCN1c2ccccc2NC2=C(C(=O)CC(C)(C)C2)C1c1ccc(Cl)cc1Cl (stereo not shown) [compound 509, 11-(2,4-Dichlorophenyl)-2,3,4,5,10,11-hexahydro-3,3-dimethyl-10-propyl-1H-dibenzo[b,e][1,4]diazepin-1-one] | 0.894 µM | > 42.7 µM | 
 | COC(=O)CN1c2ccccc2NC2=C(C(=O)CC(C)(C)C2)C1c1ccc(Cl)cc1Cl (stereo not shown) [compound 510] | 4.56 µM | > 133 µM | 
 | CC1(C)CC(=O)C2=C(C1)Nc1ccccc1N(CC(=O)O)C2c1ccc(Cl)cc1Cl (stereo not shown) [compound 511] | > 100 µM | 1.9 µM | 

SMILES | melting point | EC50 [1, 5] | IC50 [2, 6] | further results
CC(=O)N1c2ccccc2NC2=C(C(=O)CC(C)(C)C2)C1c1ccc(Cl)cc1Cl (single isomer, unassigned) [compound 38, 10-Acetyl-11-(2,4-dichlorophenyl)-2,3,4,5,10,11-hexahydro-3,3-dimethyl-1H-dibenzo[b,e][1,4]diazepin-1-one] | > 250 °C |  |  | EC50 ([1]; read-out: Replicon Assay EC50, Huh-Luc cells, three days incubation, luciferase activity): 23.8 µM; IC50 [2, 3]: 2.84 µM
CC(=O)N1c2ccccc2NC2=C(C(=O)CC(C)(C)C2)C1c1ccc(OCc2ccccc2)c(Cl)c1 (single isomer, unassigned) [compound 304, 10-acetyl-11-[4-benzyloxy-3-chlorophenyl]-3,3-dimethyl-2,3,4,5,10,11-hexahydro-1H-dibenzo[b,e][1,4]diazepin-1-one] | 130 °C |  |  | EC50 [1, 4]: 7.59 µM; IC50 [2, 3]: 0.46 µM
CC1(C)CC(=O)C2=C(C1)Nc1ccccc1N(C(=O)c1ccccc1)C2c1ccc(Cl)cc1Cl (stereo not shown) [compound 45] | > 250 °C |  |  | EC50 [1, 4]: 6.79 µM; IC50 [2, 3]: 4.83 µM
CC1(C)CC(=O)C2=C(C1)Nc1ccccc1N(C(=O)C(F)(F)F)C2c1ccc(Cl)cc1Cl (stereo not shown) [compound 107] | > 260 °C |  |  | EC50 [1, 4]: 11.5 µM; IC50 [2, 3]: > 133 µM
CC1(C)CC(=O)C2=C(C1)Nc1ccccc1N(C(=O)N1CCCCC1)C2c1ccc(Cl)cc1Cl (stereo not shown) [compound 155] | > 260 °C |  |  | IC50 [2, 3]: > 133 µM
CC(=O)N1c2cc(C#N)ccc2NC2=C(C(=O)CC(C)(C)C2)C1c1ccc(Cl)cc1Cl (stereo not shown) [compound 318] | > 250 °C |  |  | IC50 [2, 3]: 67.1 µM
CC(=O)N1c2ccccc2N(C)C2=C(C(=O)CC(C)(C)C2)C1c1ccc(Cl)cc1Cl (stereo not shown) [compound 322] | 145 °C |  |  | EC50 [1, 4]: 44.1 µM
